{"source": "paper PMC10348910", "about": "“Epigenetic reprogramming of cell cycle genes by ACK1 promotes breast cancer resistance to CDK4/6 inhibitor” (Oncogene, 2023)", "key": {"[1]": {"test_system": "AR+ TNBC", "set-up": "method as in PMID 29373071, PMID 25944485", "details": "cited from earlier work"}, "[2]": {"test_system": "BT549", "test": "proliferation assay, trypan blue exclusion", "format": "cell-based", "details": "BT549 (lacking Rb), 96 h", "procedure": "(§1) A–F Breast cancer cells were treated with either vehicle or (R)-9b for 48 h; cells were harvested and processed for cell cycle analysis using propidium iodide staining, followed by flow cytometry. G BT549 and H MDA-MB-468 cells were treated with varying drug concentrations of palbociclib or (R)-9b for 96 h and the cell viability assessed using trypan blue exclusion method. I BT549, and J MDA-MB-468 cells were treated with 1 µM palbociclib or (R)-9b for 48 h and subjected to cell cycle analysis using propidium iodide staining, followed by flow-cytometry. Palbociclib-resistant MDA-MB-231 (K) and HCC-1395 (L) were generated and treated with varying drug concentrations of palbociclib or (R)-9b for 96 h and the cell viability assessed using trypan blue exclusion method.\n(§2) For proliferation assay, 5 × 10^4 cells were plated in 6-well plate and treated with either vehicle (DMSO) or varying concentrations of (R)-9b or palbociclib in complete media for 96 h and number of viable cells were counted by trypan blue exclusion assay. Breast cancer cell lines were treated with vehicle or varying concentrations of (R)-9b for 72 h. The cells were harvested, washed 2 times with PBS and incubated with 3 ul of Annexin V-FITC antibody according to the manufacturers protocol (BD Biosciences). Five µl Propidium iodide was used to stain necrotic cells. The cells were acquired using the BD FACSCalibur machine (BD Biosciences) and data was analyzed using FlowJo software. Cell cycle analysis was performed as mentioned earlier. Briefly, vehicle or (R)-9b (48 h) treated cells were harvested by trypsinization, washed 2 times with PBS, and fixed using chilled 70% Ethanol for 1 h, followed by 2 washes with PBS. The cell pellets were treated with 50 µl RNase A (100 µg/ml; Sigma) for 15 min at 37 °C and Propidium Iodide (PI; 50 µg/ml, Sigma) was added to these cells, followed by acquisition using BD FACS Canto-II or FACSCalibur machines. The data were analyzed using FlowJo software."}, "[3]": {"test_system": "MDA-MB-468", "test": "proliferation assay, trypan blue exclusion", "format": "cell-based", "details": "MDA-MB-468 (lacking Rb), 96 h", "procedure": "as §1, §2"}, "[4]": {"test_system": "MDA-MB-468 xenografts", "test": "MDA-MB-468 xenograft in mammary fat pad", "format": "in vivo, female SCID mice", "procedure": "To validate these findings in breast tumors, MDA-MB-468 cells were injected in female SCID mice. Once palpable tumors were formed (5 weeks), mice were treated with vehicle (6% captisol), palbociclib (80 mg/Kg of body weight), (R)-9b (36 mg/Kg of body weight) by oral route, or (R)-9b (24 mg/Kg of body weight) by subcutaneous injection, five times a week.\nFig. 7 ACK1 inhibitor overcomes palbociclib-resistant breast cancer growth and metastasis. A 3 × 10^6 MDA-MB-468 cells were injected in the 4th inguinal mammary fat pad of female SCID mice. Once the tumors were palpable, the mice were treated with either vehicle (Captisol; n = 7), Palbociclib at 80 mg/kg (n = 6), or (R)-9b at 36 mg/Kg (n = 6) orally. In addition, mice were injected with (R)-9b at 24 mg/Kg (n = 7) subcutaneously. Mice were treated five times a week, for 22 days. B, C The tumors were harvested and photographed, and the weights were recorded. D Vehicle or (R)-9b treated breast cancer cells were subjected to ChIP using pY88-H4 antibody, followed by qPCR for CXCR4 gene. E CXCR4 mRNA transcript levels in vehicle or (R)-9b treated MDA-MB-231 cells. 18S rRNA was used as housekeeping gene. F MDA-MB-231 cells were transfected with ACK1 or scrambled siRNA, followed by qRT-PCR to determine CXCR4 mRNA transcript levels. G Representative lung metastatic deposits of MDA-MB-231 cells injected via the tail veins in female SCID mice, treated with either vehicle or 24 mg/Kg (R)-9b orally. H Graphical quantitation of lung metastatic deposit. I and J 5 × 10^5 luciferase expressing 4T1 cells were injected into 4th inguinal mammary fat pad of female BALB/c mice. Once the tumors were palpable, mice were treated with either vehicle or (R)-9b at 24 mg/Kg (n = 3, each) subcutaneously for 2 weeks, five times a week. The metastases were assessed using IVIS. Data are represented as the mean ± SEM. *p < 0.05; **p < 0.01; ***p < 0.001. For (A, C–F, I), p values were calculated using unpaired two-tailed Student’s t test.\nAll animal experiments were performed using the standards for humane care in accordance with the NIH Guide for the Care and Use of Laboratory Animals. Mice were obtained from Charles River Laboratories and experiments were performed according to IACUC protocols (IACUC # 20180259) approved in writing by Washington University in St. Louis Department of Comparative Medicine (DCM). 1.5 × 10^6 Cal-148 or MCF7, or 3 × 10^6 MDA-MB-468 cells were suspended in 200 µl of PBS with 50% matrigel (BD Biosciences) and were implanted subcutaneously into the mammary fat pad (between fourth and fifth inguinal) of female SCID C.B17 mice (n = 8 per group). Once the tumors were palpable (about 4–5 weeks), mice were randomly chosen for subcutaneous injection (Cal-148 and MCF7; 24 mg/Kg body weight) or given oral gavage with (R)-9b (MCF7; 36 mg/Kg body weight) resuspended in 6% Captisol (or 6% Captisol in PBS as vehicle), five times a week, for 4–5 weeks. Tumor volumes were measured twice a week using calipers. At the end of the study, all mice were humanely euthanized, tumors extracted and weighed."}, "[5]": {"details": "human, plasma"}, "[6]": {"test": "in vitro", "details": "human"}, "[7]": {"test": "in vitro", "details": "rat"}, "[8]": {"test_system": "advanced ER+/AR+ breast cancer", "set-up": "method as in NCT00755885", "details": "ref NCT00755885, cited from earlier work"}}}
{"smiles": "CNC(=O)c1ccc(N2C(=S)N(c3ccc(C#N)c(C(F)(F)F)c3)C(=O)C2(C)C)cc1F", "note": "[enzalutamide]", "values": [{"measurement": "clinical benefit rate", "setting": "[1]; at 16 weeks", "value": 33, "unit": "%"}, {"measurement": "median progression-free survival duration", "setting": "[1]", "value": 3.3, "unit": "months"}]}
{"smiles": "CC(=O)c1c(C)c2cnc(Nc3ccc(N4CCNCC4)cn3)nc2n(C2CCCC2)c1=O", "note": "[palbociclib, reference compound]", "values": [{"measurement": "sensitivity (cell proliferation)", "setting": "[2]", "value": "resistant"}, {"measurement": "sensitivity (cell proliferation)", "setting": "[3]", "value": "resistant"}, {"measurement": "xenograft tumor growth", "setting": "[4]; palbociclib 80 mg/Kg oral, (R)-9b 36 mg/Kg oral or 24 mg/Kg subcutaneous, five times a week, 3 weeks", "value": "robust tumor growth"}, {"measurement": "weights of the mice", "setting": "[4]; palbociclib 80 mg/Kg, (R)-9b 36 mg/Kg oral or 24 mg/Kg subcutaneous", "value": "modest decrease in weights"}, {"measurement": "histology (H&E) of heart, spleen, kidneys and livers", "setting": "[4]; palbociclib 80 mg/Kg, (R)-9b oral and subcutaneous", "value": "did not reveal histological abnormalities"}]}
{"smiles": "CC(=O)CC(c1ccccc1)c1c(O)c2ccccc2oc1=O", "note": "(stereo not shown) [warfarin]", "values": [{"measurement": "% Bound", "setting": "[5]", "value": 98.53, "unit": "%"}, {"measurement": "% Unbound", "setting": "[5]", "value": 1.47, "unit": "%"}, {"measurement": "recovery", "setting": "[6]; % Recovery", "value": 92.3, "unit": "%"}, {"measurement": "fraction unbound", "setting": "[6]; plasma, % Bound", "value": 0.0147}, {"measurement": "remaining at 6 h", "setting": "[6]; plasma, % Remaining at 6 hr", "value": 97.8, "unit": "%"}, {"measurement": "fraction unbound", "setting": "[6]; plasma, % Unbound", "value": 0.0147}, {"measurement": "recovery", "setting": "[7]; % Recovery", "value": 86.7, "unit": "%"}, {"measurement": "fraction unbound at 6 h", "setting": "[7]; plasma, % Bound", "value": 0.0069}, {"measurement": "remaining at 6 h", "setting": "[7]; plasma, % Remaining at 6 hr", "value": 88.2, "unit": "%"}, {"measurement": "fraction unbound at 6 h", "setting": "[7]; plasma, % Unbound", "value": 0.0069}]}
{"smiles": "C[C@]12CC[C@H](O)CC1=CC[C@@H]1[C@@H]2CC[C@]2(C)C(c3cccnc3)=CC[C@@H]12", "note": "[abiraterone]", "values": [{"measurement": "clinical benefit rate", "setting": "[8]; in 24 weeks", "value": 20, "unit": "%"}, {"measurement": "median progression-free survival duration", "setting": "[8]", "value": 2.8, "unit": "months"}]}
